# pIC50: −log10 of the molar value. Read-outs that look alike come from different tables or passages of the source. Where a SMILES comes first, the peptide text is derived from it.
# Assays:
# [1] = system: HELA cells (Acc57); assay: Cytotoxicity assay (MTT reduction), HELA cells; assay type: cell-based; conditions: Hela cells
# In short: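 HeLa cells were grown for 24 h, then exposed to peptides at 12.5, 25 and 50 μM in triplicate for 48 h at 37 °C. MTT reduction was read at 595 nm and growth % calculated relative to time-zero wells. LC50 interpolated by linear trend at −50% growth, GI50 at 50%.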
# [2] = system: human red blood cells (hRBC); assay: Hemolysis
# [3] = target: Trypsin, from human pancreas (Homo sapiens, UniProt P07477); assay: Enzymatic assay, trypsin; conditions: at 100 μM
# [4] = target: T1, Chymase, from human skin (Homo sapiens, UniProt P23946); assay: Enzymatic assay, chymase
# T1 sequence (P23946 22-247): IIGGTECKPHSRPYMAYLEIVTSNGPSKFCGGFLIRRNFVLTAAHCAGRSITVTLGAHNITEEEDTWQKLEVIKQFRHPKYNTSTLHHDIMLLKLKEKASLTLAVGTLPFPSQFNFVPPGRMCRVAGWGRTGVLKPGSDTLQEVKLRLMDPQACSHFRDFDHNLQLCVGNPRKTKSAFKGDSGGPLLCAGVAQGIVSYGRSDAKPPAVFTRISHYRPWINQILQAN
# [5] = target: T2, Elastase from human neutrophils (Homo sapiens, UniProt P08246); assay: Enzymatic assay, elastase
# T2 sequence (P08246 30-267): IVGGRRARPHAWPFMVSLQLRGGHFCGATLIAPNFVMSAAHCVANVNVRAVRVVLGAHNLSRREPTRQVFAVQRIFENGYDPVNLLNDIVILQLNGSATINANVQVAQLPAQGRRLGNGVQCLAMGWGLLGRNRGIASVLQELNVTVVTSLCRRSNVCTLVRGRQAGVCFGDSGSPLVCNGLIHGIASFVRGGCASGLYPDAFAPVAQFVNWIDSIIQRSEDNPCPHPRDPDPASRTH
# [6] = target: Thrombin, from Human Plasma (Homo sapiens, UniProt P00734); assay: Enzymatic assay, thrombin
# [7] = target: Urokinase from human urine (Homo sapiens, UniProt P00749); assay: Enzymatic assay, urokinase
# [8] = target: T3, CathepsinG, from human neutrophils (Homo sapiens, UniProt P08311); assay: Enzymatic assay, cathepsin G
# T3 sequence (P08311 21-244): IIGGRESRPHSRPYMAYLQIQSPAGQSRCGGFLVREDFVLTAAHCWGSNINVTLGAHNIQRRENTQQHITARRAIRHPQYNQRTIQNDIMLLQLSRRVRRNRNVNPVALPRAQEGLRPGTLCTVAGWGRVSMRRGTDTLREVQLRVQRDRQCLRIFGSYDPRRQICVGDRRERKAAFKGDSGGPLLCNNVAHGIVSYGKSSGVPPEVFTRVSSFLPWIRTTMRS
# [9] = target: Chymotrypsin, from human pancreas (Homo sapiens, UniProt P17538); assay: Enzymatic assay, chymotrypsin; conditions: at 100 μM
# [10] = target: Coagulation Factor Xa, from uman plasma (Homo sapiens, UniProt P00742); assay: Enzymatic assay, coagulation factor Xa
# [11] = system: Tryptase, from human lung; assay: Enzymatic assay, tryptase; conditions: at 100 μM
# Chymotrypsin, from human pancreas, sequence (P17538 19-263): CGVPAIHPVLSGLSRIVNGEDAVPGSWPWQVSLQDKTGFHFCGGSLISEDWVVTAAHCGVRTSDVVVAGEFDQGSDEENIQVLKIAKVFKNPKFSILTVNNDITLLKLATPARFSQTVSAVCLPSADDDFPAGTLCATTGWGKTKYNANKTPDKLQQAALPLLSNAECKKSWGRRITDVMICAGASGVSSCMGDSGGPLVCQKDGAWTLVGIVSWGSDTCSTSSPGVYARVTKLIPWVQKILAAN
# Coagulation Factor Xa, from uman plasma, sequence (P00742 235-488 limits assumed): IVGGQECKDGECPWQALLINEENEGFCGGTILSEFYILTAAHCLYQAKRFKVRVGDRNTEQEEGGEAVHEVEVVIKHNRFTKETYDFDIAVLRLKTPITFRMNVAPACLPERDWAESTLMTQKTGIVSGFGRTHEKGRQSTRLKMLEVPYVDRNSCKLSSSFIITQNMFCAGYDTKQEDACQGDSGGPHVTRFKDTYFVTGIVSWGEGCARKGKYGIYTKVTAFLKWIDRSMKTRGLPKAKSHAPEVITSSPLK
# Coagulation Factor Xa, from uman plasma, sequence (P00742 41-179 limits assumed): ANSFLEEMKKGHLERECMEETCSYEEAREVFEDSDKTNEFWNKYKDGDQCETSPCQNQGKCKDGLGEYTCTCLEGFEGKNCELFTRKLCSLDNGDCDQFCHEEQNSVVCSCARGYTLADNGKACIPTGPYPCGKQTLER
Compound,Cytotoxicity LC50/GI50 Hela cells [1],Hemolysis at 100 μM % [2],Trypsin at 100 μM % [3],Chymase at 100 μM % [4],pIC50 ([5]; read-out: Elastase IC50),Thrombin at 100 μM % [6],Urokinase at 100 μM % [7],pIC50 ([8]; Cathepsin G IC50),Chymotrypsin at 100 μM % [9],FXa at 100 μM % [10],Tryptase at 100 μM % [11],pIC50 ([8]; read-out: Cathepsin G IC50),pIC50 ([5]; Elastase IC50)
"CC[C@H](C)[C@@H]1NC(=O)[C@@H]2CCCN2C(=O)[C@H]2CCCN2C(=O)[C@H](CCCNC(=N)N)NC(=O)[C@@H]2CSSC[C@H](NC1=O)C(=O)N[C@@H]([C@@H](C)O)C(=O)N[C@@H](CCCCN)C(=O)N[C@@H](CO)C(=O)N[C@@H](CC(=O)O)C(=O)N1CCC[C@H]1C(=O)N1CCC[C@H]1C(=O)N[C@@H](CC1CCCCC1)C(=O)N2 [Ex. 58] (HELM PEPTIDE1{I.C.T.K.S.D.P.P.[Cha].C.R.[dP].P}$PEPTIDE1,PEPTIDE1,2:R3-10:R3|PEPTIDE1,PEPTIDE1,1:R1-13:R2$$$V2.0)",100 µM,0%,97%,44.1%,< 4.00,28%,6.7%,7.32,0%,25%,,,
"CCCC[C@@H]1NC(=O)[C@H]([C@@H](C)O)NC(=O)[C@@H]2CSSC[C@H](NC(=O)[C@H]([C@@H](C)CC)NC(=O)[C@@H]3CCCN3C(=O)[C@@H]3CCCN3C(=O)[C@H](CC(=O)O)NC(=O)[C@H](CO)NC1=O)C(=O)N[C@@H](CCCNC(=N)N)C(=O)N1CCC[C@@H]1C(=O)N1CCC[C@H]1C(=O)N[C@@H]([C@@H](C)CC)C(=O)N2 [Ex. 59] (HELM PEPTIDE1{I.C.T.[Nle].S.D.P.P.I.C.R.[dP].P}$PEPTIDE1,PEPTIDE1,2:R3-10:R3|PEPTIDE1,PEPTIDE1,1:R1-13:R2$$$V2.0)",8 µM,0%,84%,98.8%,< 4.00,,5.7%,,0%,,3.8%,7.26,
"C[C@@H](O)[C@@H]1NC(=O)[C@@H]2CSSC[C@H](NC(=O)[C@H](CC3CCCCC3)NC(=O)[C@@H]3CCCN3C(=O)[C@@H]3CCCN3C(=O)[C@H](CC(=O)O)NC(=O)[C@H](CO)NC(=O)[C@H](CCCCN)NC1=O)C(=O)N[C@@H](CO)C(=O)N1CCC[C@@H]1C(=O)N1CCC[C@H]1C(=O)N[C@@H](Cc1ccccc1)C(=O)N2 [Ex. 16] (HELM PEPTIDE1{F.C.T.K.S.D.P.P.[Cha].C.S.[dP].P}$PEPTIDE1,PEPTIDE1,2:R3-10:R3|PEPTIDE1,PEPTIDE1,1:R1-13:R2$$$V2.0)",94 µM,0.1%,90.0%,12.9%,,,3.2%,7.18,17.9%,,,,< 4.00
"CC[C@H](C)[C@@H]1NC(=O)[C@@H]2CCCN2C(=O)[C@H]2CCCN2C(=O)[C@H](CCCNC(=N)N)NC(=O)[C@@H]2CSSC[C@H](NC1=O)C(=O)N[C@@H]([C@@H](C)O)C(=O)N[C@@H](CCCCN)C(=O)N[C@@H](CO)C(=O)N[C@@H](CC(=O)O)C(=O)N1CCC[C@H]1C(=O)N1CCC[C@H]1C(=O)N[C@@H](CC1CCCCC1)C(=O)N2 [Ex. 20] (HELM PEPTIDE1{I.C.T.K.S.D.P.P.[Cha].C.R.[dP].P}$PEPTIDE1,PEPTIDE1,2:R3-10:R3|PEPTIDE1,PEPTIDE1,1:R1-13:R2$$$V2.0)",100 µM,0%,97.0%,44.1%,,28%,6.7%,7.32,0%,25%,,,< 4.00

# From patent US8658604B2, “Template-fixed beta-hairpin peptidomimetics with protease inhibitory activity” (Polyphor Ltd, priority 2005, dated 2014)
